{"source": "paper PMC10047683", "about": "“A Novel Family of Lysosomotropic Tetracyclic Compounds for Treating Leukemia” (Cancers, 2023)", "assay_type_in_all_cases": "cell-based", "key": {"SKM1": {"tested_on": "SKM1", "experiment": "AraC EC50 in parental and AraC resistant cells", "details": "Homo sapiens"}, "HL60": {"tested_on": "HL60", "experiment": "AraC EC50 in parental and AraC resistant cells", "details": "Homo sapiens"}, "KG1": {"tested_on": "KG1", "experiment": "AraC EC50 in parental and AraC resistant cells", "details": "Homo sapiens"}, "[1]": {"tested_on": "intracellular calcium in HL60 cells", "experiment": "Calcium mobilization assay (Fura2 probe)", "details": "10 µM EDK-87/EDK-88, 50 µM chloroquine", "description": "1,000 cells of AML cell lines or 50,000 primary cells (both AML and lin-depleted UCB) were treated at the indicated concentration for 18 h, and cultured in 1 mL of MethoCult H4034 Optimum (StemCell Technologies, Vancouver, BC, Canada).\nColonies were screened based on morphology and cellularity at day 7 (cell lines) […]\nCalcium mobilization assay\n1 x 10^6 cells per mL were loaded for 30’ at 37 °C with the Fura-2-AM probe (Thermo Fisher) at a final 2 µM concentration in pre-warmed calcium- and magnesium-free Hanks BSA solution. Cells were then washed and resuspended in Hanks BSA solution with calcium and magnesium at 3 x 10^5 cells per mL. In parallel, 50µL of drugs in Hanks BSA solution with calcium and magnesium were added to 96-well black wall clear bottom plates and background fluorescence […]\nCells were then added to the plate\n(50µL/well) and fluorescence was acquired at indicated timepoints using a Synergy HT Multi-Detection Microplate Reader (BioTek). For the analysis, all values were subtracted their corresponding background fluorescence, and the ratio 340/380 was calculated. Finally, ratios were normalized to vehicle-treated […]\nSemi-Quantitative Real Time PCR"}, "HEK-293T": {"tested_on": "HEK-293T", "experiment": "Pancancer cell line panel viability (nontumor line)", "details": "HEK-293T (nontumor); 10 µM; 48 h", "description": "(§1) First, 2 × 10^5 (72 h assays in cell lines (Supplementary File S1)), 3 × 10^5 (48 h assays in cell lines) or 7.5 × 10^5 (primary AML, healthy donor buffy coats) cells per mL were cultured in 96-well plates, and all drugs were added at the indicated concentrations. In α-tocopherol experiments, cells were treated with growing concentrations of α-tocopherol and EDK drugs for 48 h. In the NAC and 3MA experiments, treatment was simultaneous with EDK compounds. In glucose deprivation experiments, cells were cultivated with a standard medium (glucose high, 2 g/L), a standard medium without glucose, or a standard medium with galactose (2 g/L) and without glucose. Cell viability was measured via 7-AAD (eBioscience) exclusion and Hoechst33342 (Sigma-Aldrich, St. Louis, MO, USA) positivity staining via flow cytometry, and the cell count was obtained through volume. In the experiments with the primary cells, analyses were performed inside the blast population as detected via blast gates (CD45^low SSC^int). For solid tumor cell lines, viability was analyzed using CellTiter-Glo® Luminescent Cell Viability Assay (Promega).\n(§2) AML cell lines and cell cultures\n(§3) Cell lines HL-60 (ACC-3), KG-1 (ACC-14), MonoMac-1 (ACC-252), Kasumi-1 […]\n(§4) obtained from DSMZ. Cell lines THP-1 (TIB-202TM), MCF-7 (HTB-22™), MDA- […]\n(§5) 3216™) and HS-5 (CRL-11882™) were obtained from ATCC. HBL-2 cell line was kindly supplied by Dr. Pérez-Galán (IDIBAPS, Barcelona, Spain). SKM-1 and U937 were kindly provided by Dr. Marcus Buschbeck (IJC, Badalona, Spain). All cell lines were cultured in the conditions indicated by the providers, and were tested for mycoplasma on a monthly basis.\n(§6) All drugs were resuspended in H2O (Thermo Fischer Scientific), DMSO (Sigma-Aldrich) or ethanol (VWR) according to manufacturer’s specifications. - tocopherol, 3-methyladenine (3MA), arsenic trioxide (ATO) and N-acetyl-L-cysteine (NAC) were purchased from Sigma Aldrich. Chloroquine diphosphate was purchased from Merck. Etoposide and ionomycin were purchased from […]\n(§7) (1 picture or pasted object on this page, not shown here)"}, "HS-5": {"tested_on": "HS-5", "experiment": "Pancancer cell line panel viability (nontumor line)", "details": "HS-5 (nontumor); 10 µM; 48 h", "description": "as §1, §2, §3, §4, §5, §6, §7"}, "MDA-MB-231": {"tested_on": "MDA-MB-231", "experiment": "Pancancer cell line panel viability", "details": "10 µM, 48 h", "description": "as §1, §2, §3, §4, §5, §6, §7"}, "GRANTA": {"tested_on": "GRANTA", "experiment": "Pancancer cell line panel viability", "details": "10 µM, 48 h", "description": "as §1, §2, §3, §4, §5, §6, §7"}, "MDA-MB-435": {"tested_on": "MDA-MB-435", "experiment": "Pancancer cell line panel viability", "details": "10 µM, 48 h", "description": "as §1, §2, §3, §4, §5, §6, §7"}, "MCF-7": {"tested_on": "MCF-7", "experiment": "Pancancer cell line panel viability", "details": "10 µM, 48 h", "description": "as §1, §2, §3, §4, §5, §6, §7"}, "HCT-116": {"tested_on": "HCT-116", "experiment": "Pancancer cell line panel viability", "details": "10 µM, 48 h", "description": "as §1, §2, §3, §4, §5, §6, §7"}, "JJN3": {"tested_on": "JJN3", "experiment": "Pancancer cell line panel viability", "details": "10 µM, 48 h", "description": "as §1, §2, §3, §4, §5, §6, §7"}, "Jurkat": {"tested_on": "Jurkat", "experiment": "Pancancer cell line panel viability", "details": "10 µM, 48 h", "description": "as §1, §2, §3, §4, §5, §6, §7"}, "NCI": {"tested_on": "NCI", "experiment": "Pancancer cell line panel viability", "details": "10 µM, 48 h", "description": "as §1, §2, §3, §4, §5, §6, §7"}, "CAKI": {"tested_on": "CAKI", "experiment": "Pancancer cell line panel viability", "details": "10 µM, 48 h", "description": "as §1, §2, §3, §4, §5, §6, §7"}, "RAMOS": {"tested_on": "RAMOS", "experiment": "Pancancer cell line panel viability", "details": "10 µM, 48 h", "description": "as §1, §2, §3, §4, §5, §6, §7"}, "SR": {"tested_on": "SR", "experiment": "Pancancer cell line panel viability", "details": "10 µM, 48 h", "description": "as §1, §2, §3, §4, §5, §6, §7"}, "ACHN": {"tested_on": "ACHN", "experiment": "Pancancer cell line panel viability", "details": "10 µM, 48 h", "description": "as §1, §2, §3, §4, §5, §6, §7"}, "K562": {"tested_on": "K562", "experiment": "Pancancer cell line panel viability", "details": "10 µM, 48 h", "description": "as §1, §2, §3, §4, §5, §6, §7"}, "M14": {"tested_on": "M14", "experiment": "Pancancer cell line panel viability", "details": "10 µM, 48 h", "description": "as §1, §2, §3, §4, §5, §6, §7"}, "A549": {"tested_on": "A549", "experiment": "Pancancer cell line panel viability", "details": "10 µM, 48 h", "description": "as §1, §2, §3, §4, §5, §6, §7"}, "DU-145": {"tested_on": "DU-145", "experiment": "Pancancer cell line panel viability", "details": "10 µM, 48 h", "description": "as §1, §2, §3, §4, §5, §6, §7"}, "HBL2": {"tested_on": "HBL2", "experiment": "Pancancer cell line panel viability", "details": "10 µM, 48 h", "description": "as §1, §2, §3, §4, §5, §6, §7"}, "U266": {"tested_on": "U266", "experiment": "Pancancer cell line panel viability", "details": "10 µM, 48 h", "description": "as §1, §2, §3, §4, §5, §6, §7"}, "HOP62": {"tested_on": "HOP62", "experiment": "Pancancer cell line panel viability", "details": "10 µM, 48 h", "description": "as §1, §2, §3, §4, §5, §6, §7"}, "HCT-15": {"tested_on": "HCT-15", "experiment": "Pancancer cell line panel viability", "details": "10 µM, 48 h", "description": "as §1, §2, §3, §4, §5, §6, §7"}, "MOLT4": {"tested_on": "MOLT4", "experiment": "Pancancer cell line panel viability", "details": "10 µM, 48 h", "description": "as §1, §2, §3, §4, §5, §6, §7"}, "PC-3": {"tested_on": "PC-3", "experiment": "Pancancer cell line panel viability", "details": "10 µM, 48 h", "description": "as §1, §2, §3, §4, §5, §6, §7"}, "OVCAR": {"tested_on": "OVCAR", "experiment": "Pancancer cell line panel viability", "details": "10 µM, 48 h", "description": "as §1, §2, §3, §4, §5, §6, §7"}}}
{"molecule": "Nc1ccn([C@@H]2O[C@H](CO)[C@@H](O)[C@@H]2O)c(=O)n1", "note": "[AraC, cytarabine]", "values": [{"measurement": "EC50", "setting": "SKM1; SKM-1, SKM1 AraCR (AraC resistant)", "result": 4860, "unit": "nM"}, {"measurement": "EC50", "setting": "SKM1; SKM-1, SKM1 WT", "result": 116, "unit": "nM"}, {"measurement": "EC50", "setting": "HL60; HL-60, HL60 AraCR (AraC resistant)", "result": 220, "unit": "nM"}, {"measurement": "EC50", "setting": "HL60; HL-60, HL60 WT", "result": 29.8, "unit": "nM"}, {"measurement": "EC50", "setting": "KG1; KG-1, KG1 AraCR (AraC resistant)", "result": 400, "unit": "nM"}, {"measurement": "EC50", "setting": "KG1; KG-1, KG1 WT", "result": 50, "unit": "nM"}]}
{"molecule": "CCN(CC)CCCC(C)Nc1ccnc2cc(Cl)ccc12", "note": "(centres unmarked) [CHL, chloroquine, reference compound]", "values": [{"measurement": "intracellular calcium mobilization", "setting": "[1]", "result": "failed to mobilize intracellular calcium"}, {"measurement": "# Live cells refer to control", "setting": "HEK-293T", "result": 67, "unit": "%"}, {"measurement": "# Live cells refer to control", "setting": "HS-5", "result": 74, "unit": "%"}, {"measurement": "# Live cells refer to control", "setting": "MDA-MB-231", "result": 50, "unit": "%"}, {"measurement": "# Live cells refer to control", "setting": "GRANTA", "result": 51, "unit": "%"}, {"measurement": "# Live cells refer to control", "setting": "MDA-MB-435", "result": 44, "unit": "%"}, {"measurement": "# Live cells refer to control", "setting": "MCF-7", "result": 54, "unit": "%"}, {"measurement": "# Live cells refer to control", "setting": "HCT-116", "result": 80, "unit": "%"}, {"measurement": "# Live cells refer to control", "setting": "JJN3", "result": 84, "unit": "%"}, {"measurement": "# Live cells refer to control", "setting": "Jurkat", "result": 94, "unit": "%"}, {"measurement": "# Live cells refer to control", "setting": "NCI", "result": 69, "unit": "%"}, {"measurement": "# Live cells refer to control", "setting": "CAKI", "result": 55, "unit": "%"}, {"measurement": "# Live cells refer to control", "setting": "RAMOS", "result": 115, "unit": "%"}, {"measurement": "# Live cells refer to control", "setting": "SR", "result": 23, "unit": "%"}, {"measurement": "# Live cells refer to control", "setting": "ACHN", "result": 93, "unit": "%"}, {"measurement": "# Live cells refer to control", "setting": "K562", "result": 105, "unit": "%"}, {"measurement": "# Live cells refer to control", "setting": "M14", "result": 42, "unit": "%"}, {"measurement": "# Live cells refer to control", "setting": "A549", "result": 59, "unit": "%"}, {"measurement": "# Live cells refer to control", "setting": "DU-145", "result": 54, "unit": "%"}, {"measurement": "# Live cells refer to control", "setting": "HBL2", "result": 62, "unit": "%"}, {"measurement": "# Live cells refer to control", "setting": "U266", "result": 67, "unit": "%"}, {"measurement": "# Live cells refer to control", "setting": "HOP62", "result": 55, "unit": "%"}, {"measurement": "# Live cells refer to control", "setting": "HCT-15", "result": 77, "unit": "%"}, {"measurement": "# Live cells refer to control", "setting": "MOLT4", "result": 57, "unit": "%"}, {"measurement": "# Live cells refer to control", "setting": "PC-3", "result": 63, "unit": "%"}, {"measurement": "# Live cells refer to control", "setting": "OVCAR", "result": 74, "unit": "%"}]}
